Source: patent US8969530B2, “Anti-clathrin heavy chain monoclonal antibody for inhibition of tumor angiogenesis and growth and application thereof” (Academia Sinica, priority 2011, dated 2015)
Where a SMILES comes first, the peptide text is derived from it. The star is where a group is joined. Cbz = O=C(OCc1ccccc1)*

Experiments:
pancreatic cancer = settings: cited from earlier work
[1] = test system: HIF-1α protein in MIA PaCa-2 cells; test: HIF-1α protein level and stability in CHC knockdown cells (Western blot); format: cell-based, human; settings: MG132 10 μM, DFX 100 μM
Procedure: Cells were extracted with RIPA buffer and the supernatants were immunoprecipitated using either anti-CHC antibody, Pa65-2, mAb X-22 (Affinity), or anti-HIF-1α antibody (BD), then analyzed by immunoblotting. The signals were developed using enhanced chemiluminescence reagents (ECL) (Thermo).
For hypoxia experiments, MIA PaCa-2 cells were grown in a Ruskinn Hypoxic Chamber (APM-50D, 18 Astec, Japan) and treated with either 1% O2, 5% CO2 for 18 h, or given DFX, deferoxamine (100 μM, Sigma) treatment for 5 or 16 h. For proteasome inhibitor treatment, MG132 (10 μM, Sigma) was added to culture medium then incubated 5 to 17 h.

Compound: Nc1ccn([C@@H]2O[C@H](CO)[C@@H](O)C2(F)F)c(=O)n1 [gemcitabine]
- effectiveness in treating pancreatic cancer (pancreatic cancer; most commonly used medicine): only moderately effective

Compound: bevacizumab
- improvement in overall survival of pancreatic cancer patients (pancreatic cancer; clinical trial, in combination with small molecule drugs): no significant improvement

Compound: CC(C)C[C@@H](C=O)NC(=O)[C@H](CC(C)C)NC(=O)[C@H](CC(C)C)NC(=O)OCc1ccccc1 [MG132] (Cbz-Leu-Leu-Leu-aldehyde)
- decreased protein level of HIF-1α in CHC knockdown cells [1]: rescued
